This passage reports mutagenic call results from PubChem BioAssay AID1259407 (Chemical Carcinogenesis Research Information System (CCRIS), 2018).

Calls of active or inactive are those of the source. No rule for the calls is given here.

This data set relates to CCRIS mutagenicity, Ames/micronucleus/aberration tests. Briefly: CCRIS mutagenicity studies.
Where [1] appears, read: Test System: AMES SALMONELLA TYPHIMURIUM, Strain/Indicator: TA97, Metabolic Activation: HAMSTER, LIVER, S-9, AROCLOR 1254 (10 OR 30%), Method: PREINCUBATION
[2] abbreviates: Test System: AMES SALMONELLA TYPHIMURIUM, Strain/Indicator: TA97, Metabolic Activation: NONE, Method: PREINCUBATION
Where [3] appears, read: Test System: AMES SALMONELLA TYPHIMURIUM, Strain/Indicator: TA97, Metabolic Activation: RAT, LIVER, S-9, AROCLOR 1254 (10 OR 30%), Method: PREINCUBATION
[4] abbreviates: Test System: AMES SALMONELLA TYPHIMURIUM, Strain/Indicator: TA98, Metabolic Activation: HAMSTER, LIVER, S-9, AROCLOR 1254 (10 OR 30%), Method: PREINCUBATION
Where [5] appears, read: Test System: AMES SALMONELLA TYPHIMURIUM, Strain/Indicator: TA98, Metabolic Activation: RAT, LIVER, S-9, AROCLOR 1254 (10 OR 30%), Method: PREINCUBATION
The mark [6] stands for this setting: Test System: AMES SALMONELLA TYPHIMURIUM, Strain/Indicator: TA100, Metabolic Activation: HAMSTER, LIVER, S-9, AROCLOR 1254 (10 OR 30%), Method: PREINCUBATION
Where [7] appears, read: Test System: AMES SALMONELLA TYPHIMURIUM, Strain/Indicator: TA100, Metabolic Activation: RAT, LIVER, S-9, AROCLOR 1254 (10 OR 30%), Method: PREINCUBATION
[8] abbreviates: Test System: MOUSE LYMPHOMA, Strain/Indicator: L5178Y (TK+/TK-), Metabolic Activation: NONE, Method: SUSPENSION/PLATE.

On to `CN(C)c1ccccc1`, for which the mutagenic call reads like this: (End Point: IN VITRO CHROMOSOMAL ABERRATIONS, Test System: CHO CELLS, Metabolic Activation: NONE) “active; positive; at highest dose”; (End Point: IN VITRO CHROMOSOMAL ABERRATIONS, Test System: CHO CELLS, Metabolic Activation: RAT, LIVER, S-9, AROCLOR 1254) “active; positive”; (End Point: In vitro chromosomal aberrations, Test System: Chinese hamster lung (CHL/IU) cells, Metabolic Activation: Rat, Liver, S9, Phenobarbital and 5,6-benzoflavone) “active; positive (structural changes and ploidy)”; under setting [1], “inactive; negative”; under setting [2], “inactive; negative”; under setting [3], “inactive; negative”. The mutagenic call by setting is: under setting [4], “inactive; negative”; (Test System: AMES SALMONELLA TYPHIMURIUM, Strain/Indicator: TA98, Metabolic Activation: HAMSTER, LIVER, S-9, AROCLOR 1254, Method: PREINCUBATION) “inactive; negative”; (Test System: AMES SALMONELLA TYPHIMURIUM, Strain/Indicator: TA98, Metabolic Activation: HAMSTER, LIVER, S-9, PHENOBARBITAL AND BETA-NAPHTHOFLAVONE, Method: PREINCUBATION) “inactive; negative”; under setting [5], “inactive; negative”; (Test System: AMES SALMONELLA TYPHIMURIUM, Strain/Indicator: TA98, Metabolic Activation: RAT, LIVER, S-9, AROCLOR 1254, Method: PREINCUBATION) “inactive; negative”; under setting [6], “inactive; negative”. Besides, the mutagenic call is “inactive; negative” (Test System: AMES SALMONELLA TYPHIMURIUM, Strain/Indicator: TA100, Metabolic Activation: HAMSTER, LIVER, S-9, AROCLOR 1254, Method: PREINCUBATION); “inactive; negative” (Test System: AMES SALMONELLA TYPHIMURIUM, Strain/Indicator: TA100, Metabolic Activation: HAMSTER, LIVER, S-9, PHENOBARBITAL AND BETA-NAPHTHOFLAVONE, Method: PREINCUBATION); “inactive; negative” under setting [7]; “inactive; negative” (Test System: AMES SALMONELLA TYPHIMURIUM, Strain/Indicator: TA100, Metabolic Activation: RAT, LIVER, S-9, AROCLOR 1254, Method: PREINCUBATION); “inactive; negative” (Test System: AMES SALMONELLA TYPHIMURIUM, Strain/Indicator: TA102, Metabolic Activation: HAMSTER, LIVER, S-9, PHENOBARBITAL AND BETA-NAPHTHOFLAVONE, Method: PREINCUBATION); “inactive; negative” (Test System: AMES SALMONELLA TYPHIMURIUM, Strain/Indicator: TA102, Metabolic Activation: HAMSTER, LIVER, S-9, SODIUM PHENOBARBITAL AND 5,6-BENZOFLAVONE, Method: PREINCUBATION). Besides, the mutagenic call was “inactive; negative” (Test System: AMES SALMONELLA TYPHIMURIUM, Strain/Indicator: TA102, Metabolic Activation: NONE, Method: PREINCUBATION); “inactive; negative” (Test System: AMES SALMONELLA TYPHIMURIUM, Strain/Indicator: TA104, Metabolic Activation: HAMSTER, LIVER, S-9, PHENOBARBITAL AND BETA-NAPHTHOFLAVONE, Method: PREINCUBATION); “inactive; negative” (Test System: AMES SALMONELLA TYPHIMURIUM, Strain/Indicator: TA104, Metabolic Activation: HAMSTER, LIVER, S-9, SODIUM PHENOBARBITAL AND 5,6-BENZOFLAVONE, Method: PREINCUBATION); “inactive; negative” (Test System: AMES SALMONELLA TYPHIMURIUM, Strain/Indicator: TA104, Metabolic Activation: NONE, Method: PREINCUBATION); “inactive; negative” (Test System: AMES SALMONELLA TYPHIMURIUM, Strain/Indicator: TA1535, Metabolic Activation: HAMSTER, LIVER, S-9, AROCLOR 1254, Method: PREINCUBATION); “inactive; negative” (Test System: AMES SALMONELLA TYPHIMURIUM, Strain/Indicator: TA1535, Metabolic Activation: HAMSTER, LIVER, S-9, PHENOBARBITAL AND BETA-NAPHTHOFLAVONE, Method: PREINCUBATION). Also, the mutagenic call by setting is: (Test System: AMES SALMONELLA TYPHIMURIUM, Strain/Indicator: TA1535, Metabolic Activation: NONE, Method: PREINCUBATION) “inactive; negative”; (Test System: AMES SALMONELLA TYPHIMURIUM, Strain/Indicator: TA1535, Metabolic Activation: RAT, LIVER, S-9, AROCLOR 1254, Method: PREINCUBATION) “inactive; negative”; (Test System: AMES SALMONELLA TYPHIMURIUM, Strain/Indicator: TA1537, Metabolic Activation: HAMSTER, LIVER, S-9, AROCLOR 1254, Method: PREINCUBATION) “inactive; negative”; (Test System: AMES SALMONELLA TYPHIMURIUM, Strain/Indicator: TA1537, Metabolic Activation: HAMSTER, LIVER, S-9, PHENOBARBITAL AND BETA-NAPHTHOFLAVONE, Method: PREINCUBATION) “inactive; negative”; (Test System: AMES SALMONELLA TYPHIMURIUM, Strain/Indicator: TA1537, Metabolic Activation: NONE, Method: PREINCUBATION) “inactive; negative”; (Test System: AMES SALMONELLA TYPHIMURIUM, Strain/Indicator: TA1537, Metabolic Activation: RAT, LIVER, S-9, AROCLOR 1254, Method: PREINCUBATION) “inactive; negative”. The mutagenic call (Test System: E. COLI, Strain/Indicator: WP2UVRA/PKM101, Metabolic Activation: HAMSTER, LIVER, S-9, PHENOBARBITAL AND BETA-NAPHTHOFLAVONE, Method: PREINCUBATION) was “inactive; negative”; the mutagenic call (Test System: E. COLI, Strain/Indicator: WP2UVRA/PKM101, Metabolic Activation: NONE, Method: PREINCUBATION) was “inactive; negative”; the mutagenic call (Test System: E. COLI, Strain/Indicator: WP2UVRA, Metabolic Activation: HAMSTER, LIVER, S-9, PHENOBARBITAL AND BETA-NAPHTHOFLAVONE, Method: PREINCUBATION) was “inactive; negative”; the mutagenic call (Test System: E. COLI, Strain/Indicator: WP2UVRA, Metabolic Activation: NONE, Method: PREINCUBATION) is “inactive; negative”; the mutagenic call (Test System: MOUSE LYMPHOMA TYPHIMURIUM, Strain/Indicator: L5178Y (TK+/TK-), Metabolic Activation: RAT, LIVER, S-9, AROCLOR 1254, Method: SUSPENSION/PLATE) is “active; positive”; the mutagenic call under setting [8] is “active; positive”. In addition, the mutagenic call (Test System: UDS RODENT HEPATOCYTES, Strain/Indicator: THY INCORP (NON-S-PHASE), Metabolic Activation: NONE, Method: AUTORADIOGRAPHY) is “inactive; negative”.

As to `Cc1ccc(N(C)C)cc1`, the mutagenic call under setting [1] is “inactive; negative”; the mutagenic call under setting [2] was “inactive; negative”; the mutagenic call under setting [3] was “inactive; negative”; the mutagenic call under setting [4] is “inactive; negative”; the mutagenic call (Test System: AMES SALMONELLA TYPHIMURIUM, Strain/Indicator: TA98, Metabolic Activation: NONE, Method: PREINCUBATION) was “inactive; negative”; the mutagenic call under setting [5] is “inactive; negative”. For the same molecule, the mutagenic call is “inactive; negative” under setting [6]; “inactive; negative” (Test System: AMES SALMONELLA TYPHIMURIUM, Strain/Indicator: TA100, Metabolic Activation: NONE, Method: PREINCUBATION); “inactive; negative” under setting [7]; “active; positive” (Test System: AMES SALMONELLA TYPHIMURIUM, Strain/Indicator: TA1535, Metabolic Activation: RAT, LIVER, S-9, AROCLOR 1254 (5%), Method: STANDARD PLATE); “active; positive” (Test System: AMES SALMONELLA TYPHIMURIUM, Strain/Indicator: TA1535, Metabolic Activation: RAT, LIVER, S-9, AROCLOR 1254 (5,10%), Method: PREINCUBATION); “active; positive. reevaluation of results: equivocal” under setting [8]. Further, the mutagenic call (Test System: MOUSE LYMPHOMA, Strain/Indicator: L5178Y (TK+/TK-), Metabolic Activation: RAT, LIVER, S-9, AROCLOR 1254, Method: SUSPENSION/PLATE) is “active; positive. reevaluation of results: positive”.

For `CC(O)C(=O)NCCO` (configuration not stated), the mutagenic call was “active; positive” (Test System: AMES SALMONELLA TYPHIMURIUM, Strain/Indicator: TA98, Metabolic Activation: RAT, LIVER, S-9, AROCLOR 1254, Method: STANDARD PLATE) and “active; positive” (Test System: AMES SALMONELLA TYPHIMURIUM, Strain/Indicator: TA1538, Metabolic Activation: RAT, LIVER, S-9, AROCLOR 1254, Method: STANDARD PLATE).
